The record followed here is patent publication US10415057B2, “Pseudotyping of retroviral vectors, methods for production and use thereof for targeted gene transfer and high throughput screening” (BUNDESREPUBLIK DEUTSCHLAND, LETZ[…], priority 2006, dated 2019).

The series deals with CD20 positive Raji cells. Nature of the series: Selective transduction and Gancyclovir killing of CD20 positive Raji cells in a Raji/K-562 mixture. As to conditions: 10 μM GCV; gfp transduced cells.

Protocol: The mutation of the MeV H protein comprises the four point mutations Y481A, R533A, S548L and F549S which ablates productive interactions with CD46 and SLAM, respectively. […] Furthermore, transduced cells can be detected by CD34 expression. In parallel, as a control, the same vector particles having packaged the go gene were applied.
For the generation of the vector particles calcium phosphate transfection was performed. 24 h before transfection, 6.5*10^6 HEK-293T cells were seeded into a T75 flask. 1 h before transfection the medium of the cells was exchanged against 7 ml fresh medium (DMEM with 4.5 g/l glucose, 3.7 g/l NaHCO3, 10% FCS, 1% glutamin). […]
The HmutscFvCD20Δ18/FcΔ30 pseudotyped HIV-1 vector particles either with packaged go gene or with packaged cd34tk39 gene were 1:5 diluted in 300 μl medium (RPMI 1640 with 2 g/l NaHCO3, 10% FCS, 1% glutamine) containing a mixture of 2*10^3 CD20+ Raji and 2*10^3 CD20− K-562 cells. […] Afterwards the percentages of CD20/GFP and CD20/CD34 double positive cells, respectively, were measured by FACS (time point 0 h in FIG. 18). […] At different time points the cells were stained with the respective antibodies and the double positive cells were measured by FACS (Dako Galaxy flow cytometry system; s. FIGS. 18A-18B).

Consider `Nc1nc(O)c2ncn(COC(CO)CO)c2n1` [GCV, Gancyclovir], for which the “Toxic effect of GCV by its own on the cells (CD20/GFP double positive fraction)” value is “no toxic effect”.
